In US8946218B2, “CCR2 receptor antagonists, method for producing the same, and use thereof as medicaments” (Boehringer Ingelheim International GmbH, priority 2010, dated 2015) one finds Ki data, which are given here for 39 molecules.

For the test, the target named is T1, CCR2 (Homo sapiens, UniProt P41597).
T1 construct: Membranes were prepared from THP-1 cells; endogenous in cells; host or cells: THP-1 (human acute monocytic leukaemia cells), membrane preparation
T1 sequence (P41597 whole entry): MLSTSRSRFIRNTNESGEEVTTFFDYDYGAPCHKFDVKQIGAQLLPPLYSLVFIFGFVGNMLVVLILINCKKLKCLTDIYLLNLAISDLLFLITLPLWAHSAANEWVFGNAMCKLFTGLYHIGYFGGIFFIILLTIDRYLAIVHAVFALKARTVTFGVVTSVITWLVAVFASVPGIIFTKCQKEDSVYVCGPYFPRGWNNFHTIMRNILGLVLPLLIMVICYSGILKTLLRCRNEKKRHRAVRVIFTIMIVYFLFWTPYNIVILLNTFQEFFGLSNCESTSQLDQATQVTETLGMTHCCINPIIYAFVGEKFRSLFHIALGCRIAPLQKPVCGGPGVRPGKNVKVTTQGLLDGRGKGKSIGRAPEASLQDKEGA
Kind of test: Receptor membrane binding assay: [125I]MCP-1 binding to CCR2 on THP-1 cell membranes (SPA beads). Particulars: THP-1 membranes, [125I]MCP-1, bound radioactivity after 8 h; read-out: hKi. The procedure:
The above exemplary substances have been tested for binding to CCR2 using a binding assay as outlined herein below:
THP-1 cells (human acute monocytic leukaemia cells) were cultured under standardized conditions at 37° C. and 5% CO2 in a humidified incubator. THP-1 cells were cultivated in RPMI 1640 medium (Gibco 21875) containing 1% MEM-NEAA (Gibso 11140) 2 mM L-glutamine, 1.5 g/L sodium bicarbonate, 4.5 g/L glucose, 10 mM HEPES and 1.0 mM sodium pyruvate, 90%; 10% fetal calf serum (FCS Gibco 10500-064).
Membranes were prepared from THP-1 cells. THP-1 cells were centrifuged at 300×g at 4° C. for 10 min. The cell pellet was resuspended in Phosphate Buffer Saline (PBS, including 10 μM Pefabloc and a protease inhibitor mix ‘complete’, Boehringer Mannheim (1 tablet/50 ml)), to a concentration of […]. The membrane preparation was performed by disrupting the cells by nitrogen […] (at 50 bar, for 1 h) in a “Nitrogen Bombe” (Parr Instrument). Cell debris was removed by centrifugation (800×g at 4° C., 1 min). The supernatant was centrifuged at 80000×g, 4° C. for 30 min to sediment the cell membranes. Usually 50 mg of protein (Bradford assay) were yielded from 1×10E9 cells. The membranes were resuspended in 25 mM HEPES, 25 mM MgCl2, 1 mM CaCl2, 10% Glycerine for storage in aliquots at −80° C. in 25 mM HEPES, 25 mM MgCl2, 1 mM CaCl2, 10% Glycerine and stored at −80° C.
Receptor Membrane Binding Assay:
Perkin Elmer NEX 332 Jod 125 MCP-1, Stock: 2200 Ci/mmol solved in 2000 μl assay buffer, stored at −20° C. THP-1 membrane were adjusted with 25 mM HEPES, pH 7.2; 5 mM MgCl2; 0.5 mM CaCl2; 0.2% BSA assay buffer to a concentration of 2.5 μg/15 μl. Amersham Biosciences PVT-WGA Beads (RPNQ0001) were adjusted with assay buffer to a concentration of 0.24 mg/30 μl. For preparation of the membrane-bead-suspension membranes and beads were incubated for 30 min at RT under rotation (60 rpm) with a ratio of 1:2. Test compounds dissolved in 100% DMSO to a concentration of 10 mM and are further diluted with 100% DMSO to 1 mM. All additional compound dilutions were obtained with assay buffer, final 1% DMSO. Compounds, membrane-bead-suspension and [125I]MCP-1 (ca. 25000 cpm/10 μl) were incubated. Bound radioactivity was determined by scintillation counter after 8 h. Determination of affinity of test compounds (dissociation constant hKi) is calculated by iterative fitting of experimental data using the “easy sys” program, which is based on law of mass action (Schittkowski K. (1994), Numerische Mathematik, Vol. 68, 129-142).
With `CO[C@@H]1COCC[C@@H]1NC1CCN(C(=O)c2nccc(Nc3cccc(C(F)(F)F)c3)c2C)CC1` [Example 27], the Ki was 5 nM.

Consider `CO[C@H]1COCC[C@H]1NC1CCN(C(=O)c2nccc(Nc3cccc(C(F)(F)F)c3)c2C)CC1` [Example 28], for which the Ki was determined as 10 nM. `Cc1c(Nc2cccc(C(F)(F)F)c2)ncnc1C(=O)N1CCC(N2CCOCC2)CC1` [Example 29]: the Ki was found to be 53 nM. For the molecule `CO[C@@H]1COCC[C@@H]1NC1CCN(C(=O)c2ncnc(Nc3ccc(Cl)c(C(F)(F)F)c3)c2C)CC1` [Example 30], the Ki worked out at 1480 nM.

Regarding `CO[C@H]1COCC[C@H]1NC1CCN(C(=O)c2ncnc(Nc3ccc(Cl)c(C(F)(F)F)c3)c2C)CC1` [Example 31], the Ki was 5310 nM. With `CO[C@@H]1COCC[C@@H]1NC1CCN(C(=O)c2cc(Nc3cccc(C(F)(F)F)c3)nc(C(F)(F)F)n2)CC1` [Example 32] the figure was 64 nM; with `CO[C@H]1COCC[C@H]1NC1CCN(C(=O)c2cc(Nc3cccc(C(F)(F)F)c3)nc(C(F)(F)F)n2)CC1` [Example 33], 36 nM; with `COc1nc(Nc2ccc(Cl)c(Cl)c2)c(C)c(C(=O)N2CCC(N[C@H]3CCOC[C@H]3OC)CC2)n1` [Example 33a], 0.5 nM. In the case of `COc1nc(Nc2ccc(Cl)c(Cl)c2)c(C)c(C(=O)N2CCC(N[C@@H]3CCOC[C@@H]3OC)CC2)n1` [Example 33b], the Ki amounted to 0.7 nM. For the molecule `CO[C@@H]1COCC[C@@H]1NC1CCN(C(=O)c2nc(C(F)(F)F)nc(Nc3ccc(Cl)c(Cl)c3)c2C)CC1` [Example 33c], the Ki came out at 0.2 nM. With `CO[C@H]1COCC[C@H]1NC1CCN(C(=O)c2nc(C(F)(F)F)nc(Nc3ccc(Cl)c(Cl)c3)c2C)CC1` [Example 33d], the Ki was 0.3 nM.

For the molecule `Cc1c(Nc2ccc(Cl)c(Cl)c2)ncnc1C(=O)N1CCC(N[C@H]2CCOC[C@H]2F)CC1` [Example 33e], the Ki amounted to 23 nM.

In the case of `Cc1c(Nc2ccc(Cl)c(Cl)c2)ncnc1C(=O)N1CCC(N[C@@H]2CCOC[C@@H]2F)CC1` [Example 33g], the Ki is 8 nM. For the molecule `COc1nc(Nc2ccc(Cl)c(Cl)c2)c(C)c(C(=O)N2CCC(NC3CCOCC3F)CC2)n1` (stereo not drawn) [Example 33h], the Ki was 2 nM. The result for `COc1nc(Nc2cccc(C(F)(F)F)c2)c(C)c(C(=O)N2CCC(N[C@@H]3CCOC[C@@H]3OC)CC2)n1` [Example 33i] reads 3 nM; that for `COc1nc(Nc2cccc(C(F)(F)F)c2)c(C)c(C(=O)N2CCC(N[C@H]3CCOC[C@H]3OC)CC2)n1` [Example 33j], 1 nM. The result for `COc1nc(Nc2cccc(C(F)(F)F)c2)c(C)c(C(=O)N2CCC(NC3CCOCC3F)CC2)n1` (stereo not drawn) [Example 33k] reads 5 nM; that for `Cc1c(Nc2ccc(Cl)c(Cl)c2)ncnc1C(=O)N1CCC(NC2CCOCC2)CC1` [Example 33l], 6 nM.

On to `COc1nc(Nc2ccc(Cl)c(Cl)c2)c(C)c(C(=O)N2CCC(NC3CCOCC3)CC2)n1` [Example 33m], for which the Ki came out at 0.7 nM. `Cc1c(Nc2ccc(Cl)c(Cl)c2)nc(C(F)(F)F)nc1C(=O)N1CCC(NC2CCOCC2)CC1` [Example 33n]: the Ki was 1 nM.

On to `CO[C@@H]1COCC[C@@H]1NC1CCN(C(=O)c2nc(C3CC3)nc(Nc3ccc(Cl)c(Cl)c3)c2C)CC1` [Example 33o], for which the Ki turned out to be 0.2 nM.

As for `CO[C@H]1COCC[C@H]1NC1CCN(C(=O)c2nc(C3CC3)nc(Nc3ccc(Cl)c(Cl)c3)c2C)CC1` [Example 33p], the Ki stood at 0.3 nM. With `Cc1c(Nc2ccc(Cl)c(Cl)c2)nc(C2CC2)nc1C(=O)N1CCC(N[C@H]2CCOC[C@H]2F)CC1` [Example 33q] the figure was 0.8 nM.

In the case of `Cc1c(Nc2ccc(Cl)c(Cl)c2)nc(C2CC2)nc1C(=O)N1CCC(N[C@@H]2CCOC[C@@H]2F)CC1` [Example 33r], the Ki is 0.9 nM. Regarding `Cc1c(Nc2cccc(C(F)(F)F)c2)nc(C2CC2)nc1C(=O)N1CCC(N[C@@H]2CCOC[C@@H]2F)CC1` [Example 33s], the Ki worked out at 1 nM. On to `CO[C@@H]1COCC[C@@H]1NC1CCN(C(=O)c2nc(C3CC3)nc(Nc3cccc(C(F)(F)F)c3)c2C)CC1` [Example 33t], for which the Ki came to 0.3 nM.

Take `Cc1c(Nc2cccc(C(F)(F)F)c2)nc(C2CC2)nc1C(=O)N1CCC(N[C@H]2CCOC[C@H]2F)CC1` [Example 33u]: the Ki was found to be 1 nM.

On to `CO[C@H]1COCC[C@H]1NC1CCN(C(=O)c2nc(C3CC3)nc(Nc3cccc(C(F)(F)F)c3)c2C)CC1` [Example 33v], for which the Ki is 0.4 nM. With `COc1nc(Nc2cccc(C(F)(F)F)c2)c(C)c(C(=O)N2CCC(NC3CCOCC3)CC2)n1` [Example 33w] the figure was 3 nM; with `COC1COCCC1NC1CCN(C(=O)c2ncnc(Nc3cc4ccccc4c(C)n3)c2C)CC1` (stereo not drawn) [Example 34], 1010 nM; with `CO[C@@H]1COCC[C@@H]1NC1CCN(C(=O)c2ncnc(Nc3ccc4ccccc4c3)c2C)CC1` [Example 35], 26 nM. In the case of `COc1ccc2cc(Nc3ncnc(C(=O)N4CCC(N[C@H]5CCOC[C@H]5OC)CC4)c3C)ccc2c1` [Example 36], the Ki came out at 70 nM. For `COc1ccc2ccc(Nc3ncnc(C(=O)N4CCC(N[C@H]5CCOC[C@H]5OC)CC4)c3C)cc2c1` [Example 37], the Ki worked out at 15 nM. In the case of `COc1cc(Nc2ncnc(C(=O)N3CCC(N[C@H]4CCOC[C@H]4OC)CC3)c2C)cc2ccccc12` [Example 38], the Ki turned out to be 91 nM. On to `CO[C@H]1COCC[C@H]1NC1CCN(C(=O)c2ncnc(Nc3ccc4ccccc4c3)c2C)CC1` [Example 39], for which the Ki worked out at 84 nM.

Turning to `COc1ccc2ccc(Nc3ncnc(C(=O)N4CCC(N[C@@H]5CCOC[C@@H]5OC)CC4)c3C)cc2c1` [Example 40], the Ki was 84 nM. With `COc1cc(Nc2ncnc(C(=O)N3CCC(N[C@@H]4CCOC[C@@H]4OC)CC3)c2C)cc2ccccc12` [Example 41] the figure was 196 nM.

For `CO[C@H]1COCC[C@H]1NC1CCN(C(=O)c2ncnc(Nc3ccc4cc(Br)ccc4c3)c2C)CC1` [Example 42], the Ki turned out to be 20 nM. For the molecule `CO[C@@H]1COCC[C@@H]1NC1CCN(C(=O)c2ncnc(Nc3ccc4cc(Br)ccc4c3)c2C)CC1` [Example 43], the Ki was determined as 17 nM.
